Values belong to the molecule of their own block, whether it stands above or below them.
What was measured:
UapA = molecular target: T1, UapA (Aspergillus nidulans, UniProt Q07307); assay: radiolabelled uptake in germinating conidiospores; format: cell-based; settings: apparent Km; wild-type lipid background; [8-3H]-xanthine 0.1 μM with unlabelled substrate 0.5-1000 μM; pH 6.8, 37 °C; labelled compound; background of strain lacking transporter subtracted; read-out: Xanthine Uptake Kinetics / Km
T1 construct: full-length in native germinating conidiospores; GFP-tagged UapA under native promoter used for localization (functionally replaces untagged); homodimer
Text: radiolabelled uptake in germinating conidiospores on UapA

[1] = substrate: Nc1ncnc2nc[nH]c12; assay: radiolabelled uptake in germinating conidiospores; format: cell-based, Aspergillus nidulans; settings: apparent Km, wild-type lipid background, [2,8-3H]-adenine 0.1 μM with unlabelled substrate 0.5-1000 μM, pH 6.8, 37 °C, labelled compound, background of strain lacking transporter subtracted
Text: radiolabelled uptake in germinating conidiospores on AzgA

T1 sequence (Q07307 whole entry): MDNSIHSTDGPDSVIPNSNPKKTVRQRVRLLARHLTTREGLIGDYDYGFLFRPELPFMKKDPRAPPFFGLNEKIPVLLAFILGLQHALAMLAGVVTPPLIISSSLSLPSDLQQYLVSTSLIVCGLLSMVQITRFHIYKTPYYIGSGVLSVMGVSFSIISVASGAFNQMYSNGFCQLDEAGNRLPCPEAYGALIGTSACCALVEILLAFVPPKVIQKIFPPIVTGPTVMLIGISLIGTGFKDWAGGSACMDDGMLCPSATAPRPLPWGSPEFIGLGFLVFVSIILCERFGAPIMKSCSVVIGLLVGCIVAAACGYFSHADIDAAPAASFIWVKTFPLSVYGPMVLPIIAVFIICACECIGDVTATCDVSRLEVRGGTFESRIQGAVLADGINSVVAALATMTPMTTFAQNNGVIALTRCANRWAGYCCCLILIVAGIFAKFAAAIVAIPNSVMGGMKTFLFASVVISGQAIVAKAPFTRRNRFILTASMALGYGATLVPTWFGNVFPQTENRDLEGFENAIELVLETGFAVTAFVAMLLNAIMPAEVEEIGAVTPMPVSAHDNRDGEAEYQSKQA

Km (UapA): 5 ± 1 µM
Molecule: O=c1[nH]c(=O)c2[nH]cnc2[nH]1 [xanthine]

B1: AzgA (Aspergillus nidulans) (protein)
chain: MGYAEWIGRTNAAVARSPVGRWFRLEGSGHPRERKGAYFFTELRAGLATFFAMAYIISVNANITSDTGGTCVCPAEDLATACDNNTEYLLCKQEVNRDLVTATAAIAAIASFFLGLLANLPVALAPGMGLNAYFAYTVVGHHGTGLIPYSLAVTAVFVEGWIFLGLTLLGIRQWLARAIPASIKLATGAGIGLYLTLIGLSYSAGLGVVQGGTSSPIQLAGCASDTFGDDGLCPSSEKMRNPTMWIGIFCGGVFTVFLMMYRVKGAVIAGILLVSIISWPRPTPVTYFPHTETGDSSFDFFKKVVTFHPIQHTLVAQEWNISSNGGQFGLALITFLYVDILDATGTLYSMAKFAGAMDERTQDFEGSAMAYMVDAICISIGSLFGSPPVTAFVESGAGISEGGKTGLTSCMTGICFFIAVFFAPIFASIPPWATGSTLVIVGSMMMHATLEINWRYLGDAVPAFLTISLMPFTYSIADGLIAGILSYILINGGVWIVAKLTGGRISPPNREEEHEPWTWKIPGGFFPPWLVRAVHGKKDFWRAEDDANDLSLGVMPHGSLSSQDRAGEKLASSKEQVTEK
notes: full-length in native germinating conidiospores; GFP-tagged AzgA under native promoter used for localization (functionally replaces untagged)
Km [1]: 3 ± 1 µM
